Reference: patent US4419123A, “Herbicidal 4-trifluoromethyl-3'-carbon-substituted-4'-substituted diphenyl ethers” (Rohm and Haas Company, priority 1981, dated 1983)

Experiments:
[1] = Preemergence herbicidal activity (% control) against monocot weeds; assay type: in vivo; details: pre-emergence, 336 h, average, read-out: Herbicidal activity (% control), preemergence, monocots; for activity at 4483.4 g/ha: 4 lb./A.
Excerpt: (§1) barnyardgrass (Echinochloa crusgalli) crabgrass (Digitaria spp.) nutsedge (Cyperus esculentus)
(§2) At 2 and 4 pounds per acre:
(§3) **Bermudagrass (Cynodon dactylon)
(§4) *downy brome (Bromus tectorum) foxtail (Setaria faberii)
(§5) Johnsongrass (Sorghum halepense) […]
(§6) quackgrass (Agropyron repens)
(§7) *ryegrass (Lolium perenne)
(§8) *wild oats (Avena factua)
(§9) *yellow millet (Panicum miliaceum)
(§10) The following test procedure is employed.

[2] = Postemergence herbicidal activity (% control) against monocot weeds; assay type: in vivo; details: post-emergence, 336 h, average, read-out: Herbicidal activity (% control), postemergence, monocots; for activity at 4483.4 g/ha: 4 lb./A.
Excerpt: as §1, §2, §3, §4, §5, §6, §7, §8, §9, §10

snapbeans = assay: Crop tolerance (selective herbicidal activity), snapbeans; assay type: in vivo; details: preemergence applications
Experimental: as §10
(§11) Following the general test procedure of Example 37, diphenyl ethers are evaluated for significant tolerance (as shown by 50% or less kill of the test crop at levels of application which give more than 50% kill of many or all of the weeds of Example 73) towards some or all of the following common agronomic crops (not all compounds tested against all crops): alfalfa, snapbeans, corn, cotton, cucumbers, peanuts, rape, rice, safflower, soybeans, tomatoes, and wheat.

corn = assay: Crop tolerance (selective herbicidal activity), corn; assay type: in vivo
cotton = assay: Crop tolerance (selective herbicidal activity), cotton; assay type: in vivo
Experimental: as §10, §11

peanuts = assay: Crop tolerance (selective herbicidal activity), peanuts; assay type: in vivo
rice = assay: Crop tolerance (selective herbicidal activity), rice; assay type: in vivo
soybeans = assay: Crop tolerance (selective herbicidal activity), soybeans; assay type: in vivo
wheat = assay: Crop tolerance (selective herbicidal activity), wheat; assay type: in vivo
[3] = Preemergence herbicidal activity (% control) against dicot weeds; details: pre-emergence, 336 h; for activity at 4483.4 g/ha: read-out: Herbicidal activity (% control), preemergence, dicots, 4 lb./A., average, about two weeks after application
[4] = Postemergence herbicidal activity (% control) against dicot weeds; details: post-emergence, 336 h; for activity at 4483.4 g/ha: read-out: Herbicidal activity (% control), postemergence, dicots, 4 lb./A., average, about two weeks after application
safflower = assay: Crop tolerance (selective herbicidal activity), safflower; assay type: in vivo; details: preemergence applications
Experimental: as §10, §11

[5] = about two weeks after application
[6] = 10 lb./A., about two weeks after application
[7] = postemergence or layby applications

Compound: CC(C)Oc1cc(Oc2ccc(C(F)(F)F)cc2Cl)ccc1[N+](=O)[O-] [Example 4]
- activity at 4483.4 g/ha [1, 5]: 98%
- activity at 4483.4 g/ha [2, 5]: 80%
- Tolerance to snapbeans (snapbeans): Tolerance (significant tolerance (as shown by 50% or less kill of the test crop at levels of application which give more than 50% kill of many or all of the weeds of Example 73))
- Tolerance to corn (corn; postemergence applications): Tolerance (significant tolerance (as shown by 50% or less kill of the test crop at levels of application which give more than 50% kill of many or all of the weeds of Example 73))
- Tolerance to corn (corn; preemergence applications): Tolerance (significant tolerance (as shown by 50% or less kill of the test crop at levels of application which give more than 50% kill of many or all of the weeds of Example 73))
- Tolerance to cotton (cotton; preemergence applications): Tolerance (significant tolerance (as shown by 50% or less kill of the test crop at levels of application which give more than 50% kill of many or all of the weeds of Example 73))
- Tolerance to peanuts (peanuts; postemergence applications): Tolerance (significant tolerance (as shown by 50% or less kill of the test crop at levels of application which give more than 50% kill of many or all of the weeds of Example 73))
- Tolerance to rice (rice; preemergence applications): Tolerance (significant tolerance (as shown by 50% or less kill of the test crop at levels of application which give more than 50% kill of many or all of the weeds of Example 73))
- Tolerance to soybeans (soybeans; preemergence applications): Tolerance (significant tolerance (as shown by 50% or less kill of the test crop at levels of application which give more than 50% kill of many or all of the weeds of Example 73))
- Tolerance to wheat (wheat; postemergence applications): Tolerance (significant tolerance (as shown by 50% or less kill of the test crop at levels of application which give more than 50% kill of many or all of the weeds of Example 73))
- Tolerance to wheat (wheat; preemergence applications): Tolerance (significant tolerance (as shown by 50% or less kill of the test crop at levels of application which give more than 50% kill of many or all of the weeds of Example 73))
- activity at 4483.4 g/ha [3]: 100%
- activity at 4483.4 g/ha [4]: 100%

Compound: CCOc1cc(Oc2ccc(C(F)(F)F)cc2Cl)ccc1[N+](=O)[O-] [Example 3, 2-Chloro-α,α,α-trifluoro-p-tolyl-3-ethoxy-4-nitrophenyl ether]
- pest or weed control at 280.212 g/ha ([1]; 1/4 lb./A.): 84%
- activity at 4483.4 g/ha [1, 5]: 89%
- activity at 11208.5 g/ha [1, 6]: 99%
- pest or weed control at 560.425 g/ha ([2]; 1/2 lb./A. (footnote +)): 96%
- activity at 4483.4 g/ha [2, 5]: 99%
- activity at 11208.5 g/ha [2, 6]: 100%
- Tolerance to cotton (cotton; [7]): Tolerance (significant tolerance (as shown by 50% or less kill of the test crop at levels of application which give more than 50% kill of many or all of the weeds of Example 73))
- Tolerance to cotton (cotton; preemergence applications): Tolerance (significant tolerance (as shown by 50% or less kill of the test crop at levels of application which give more than 50% kill of many or all of the weeds of Example 73))
- Tolerance to peanuts (peanuts; preemergence applications): Tolerance (significant tolerance (as shown by 50% or less kill of the test crop at levels of application which give more than 50% kill of many or all of the weeds of Example 73))
- Tolerance to rice (rice; postemergence applications or applications on transplanted rice): Tolerance (significant tolerance (as shown by 50% or less kill of the test crop at levels of application which give more than 50% kill of many or all of the weeds of Example 73))
- Tolerance to safflower (safflower): Tolerance (significant tolerance (as shown by 50% or less kill of the test crop at levels of application which give more than 50% kill of many or all of the weeds of Example 73))
- Tolerance to soybeans (soybeans; [7]): Tolerance (significant tolerance (as shown by 50% or less kill of the test crop at levels of application which give more than 50% kill of many or all of the weeds of Example 73))
- Tolerance to soybeans (soybeans; preemergence applications): Tolerance (significant tolerance (as shown by 50% or less kill of the test crop at levels of application which give more than 50% kill of many or all of the weeds of Example 73))
- pest or weed control at 280.212 g/ha ([3]; read-out: Herbicidal activity (% control), preemergence, dicots): 66%
- activity at 4483.4 g/ha [3]: 99%
- activity at 11208.5 g/ha ([3]; read-out: Herbicidal activity (% control), preemergence, dicots, 10 lb./A., average, about two weeks after application): 100%
- pest or weed control at 560.425 g/ha ([4]; read-out: Herbicidal activity (% control), postemergence, dicots): 97%
- activity at 4483.4 g/ha [4]: 100%
- activity at 11208.5 g/ha ([4]; read-out: Herbicidal activity (% control), postemergence, dicots, 10 lb./A., average, about two weeks after application): 100%
